{"source": "patent US20110028566A1", "about": "“COMPOSITIONS AND PRODUCTS CONTAINING CYCLOALIPHATIC DIOL ANTIMICROBIAL AGENTS AND METHODS OF USING THE COMPOSITIONS AND PRODUCTS” (EASTMAN CHEMICAL COMPANY, priority 2009, published 2011)", "type_in_all_cases": "cell-based", "key": {"[1]": {"system": "Aspergillus niger", "test": "Test for adequate preservation in skin cream formulation (microorganism counts)", "conditions": "skin cream emulsion pH 6.75; concentration in label", "experimental": "(§1) A test for adequate preservation was carried out in accordance with the European Pharmacopea (6.0) and United States Pharmacopea (5.1). The testing consisted of the inoculation of a skin cream formulation serving as an emulsion substrate. The skin cream formulation having a pH of 6.75 was as follows: […]\n(§2) This skin cream was the emulsion substrate, which formed the base for all further experimentation.\n(§3) For Examples 3.1 through 3.10, 390.0 g cream were weighed into a 600-ml beaker. The cream was stirred at room temperature while adding the ingredients specified in Table 51. Each sample was stirred for 2 hours, then placed in the refrigerator until inoculated.\n(§4) For Examples 3.11 and 3.12, 179.4 g cream were weighed into a 400-ml beaker. The cream was stirred at room temperature while adding the specified ingredients.\n(§5) The samples of Examples 3.1 through 3.10 were challenged with specific organisms (see Table 51) to produce a contamination of between 1.0×10^5 cfu/g and 1.0×10^6 cfu/g. The actual inoculation counts resulting from these challenges were immediately determined by diluting in sterile buffered water and (spread plate method) plating for enumeration.\n(§6) Challenge organisms were prepared in Mueller-Hinton broth, allowed to grow for 72 hours at 35° C.+/−2° C., centrifuged at 2500 rpm for 5 minutes, and the supernatant broth was removed. The microbial pellet was then re-diluted with sterile buffered water to a turbidity that matched previous 1.0×10^8 cfu/g concentrations of that organism's specific growth curve.\n(§7) The test emulsions were maintained within a specific temperature range optimal for the organisms; 35° C.+/2° C. for the bacteria and 22° C.+/−2° C. for the fungi, for the first three days. They were kept at ambient room temperature for the subsequent time periods.\n(§8) Subculture samples of approximately 1 gram were taken for counts at 7, 14, and 30 days and incubated under optimal conditions and nutrition for no less than 5 days. Subcultures were diluted 1:2, 1:10, 1:100, . . . , 1:10,000 and plated using the spread plate method onto Plate Count Agar and onto SAB Dextrose Agar for the Candida and Aspergillus species; and incubated as follows: 35° C.+/−2° C. for the Plate Count Agar and 22° C.+/−2° C. for the SAB Dextrose plates of Candida albicans and Aspergillus niger. Negative results were not reported before 7 days incubation, and counts were performed after no less than 5 days incubation. Because of the high viscosity of the test emulsion, at least a 1:2 dilution was required to perform the spread plate subcultures. 0-30 counts represent a 1 to 2 dilution, numbers […] a 1:10 dilution; and the rest represent dilutions of 1:100, 1:1000, or 1:10,000. […]"}, "[2]": {"system": "Pseudomonas aeruginosa", "test": "Test for adequate preservation in skin cream formulation (microorganism counts)", "conditions": "skin cream emulsion pH 6.75; concentration in label", "experimental": "as §1, §2, §3, §4, §5, §6, §7, §8"}, "[3]": {"system": "Pseudomonas aeruginosa ATCC 27853", "test": "MIC determination and synergy testing (Kull synergy index), microplate", "conditions": "for QA, MIC of CHDM alone: plate 169E (CG series)", "procedure,_shortened": "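Broth microdilution in TSB (pH 7.3) for bacteria or SDB (pH 5.6) for C. albicans, 1:1.3333 serial dilutions covering one log in nine steps, agents alone or blended for synergy; triplicate wells inoculated to ~10^6 CFU/mL bacteria or ~10^5 CFU/mL yeast; uninoculated wells correct compound turbidity.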"}, "[4]": {"conditions": "P. aeruginosa, plate 126E, day 2, PE and CHDM"}}, "note": "Where “and” joins values, the source holds several entries; their conditions need not be identical. Equal entries are not always repeated.", "data": [{"smiles": "OCC1CCC(CO)CC1", "note": "(stereo not drawn) [1,4-CHDM, 1,4-cyclohexanedimethanol]", "values": [{"measurement": "Antimicrobial activity against Aspergillus niger in skin cream (in words)", "setting": "[1]", "result": "significant activity"}, {"measurement": "Antimicrobial activity against Pseudomonas aeruginosa in skin cream (in words)", "setting": "[2]", "result": "significant activity"}, {"measurement": "QA/a", "setting": "[3]; CHDM alone (QA) or in combination with BA:DHA (a), plate 149E, day 1", "result": 1.31}, {"measurement": "QA/a", "setting": "[3]; CHDM alone (QA) or in combination with BA:DHA (a), plate 149E, day 2", "result": 1.75}, {"measurement": "QA/a", "setting": "[3]; CHDM alone (QA) or in combination with DMDM hydantoin (a), plate 150E, day 1", "result": 1.31}, {"measurement": "QA/a", "setting": "[3]; CHDM: MIC alone (QA) or conc. in combination with CP (a), plate 148E, day 1", "result": 1.31}, {"measurement": "QA/a", "setting": "[3]; CHDM: MIC alone (QA) or conc. in combination with MIT (a), plate 147E, day 1", "result": 1.31}, {"measurement": "QA/a", "setting": "[3]; CHDM: MIC alone (QA) or conc. in combination with MIT (a), plate 147E, day 2", "result": 2.33}, {"measurement": "QA/a", "setting": "[3]; CHDM: MIC alone (QA) or conc. in combination with MIT (a), plate 210E, day 1", "result": 1.75}, {"measurement": "QA/a", "setting": "[3]; CHDM: MIC alone (QA) or conc. in combination with MIT (a), plate 210E, day 2", "result": 1.75}, {"measurement": "QA/a", "setting": "[3]; CHDM: MIC alone (QA) or conc. in combination with MIT (a), plate 249E, day 1", "result": 1.80}, {"measurement": "QA/a", "setting": "[3]; CHDM: MIC alone (QA) or conc. in combination with MIT (a), plate 249E, day 2", "result": 1.80}, {"measurement": "QA/a", "setting": "[3]; CHDM: MIC alone (QA) or conc. in combination with MP (a), plate 146E, day 1", "result": 1.31}, {"measurement": "QA, MIC of CHDM alone", "setting": "[3]; P. aeruginosa, day 1 of incubation", "result": 1.31, "unit": "weight percent"}, {"measurement": "QA, MIC of CHDM alone", "setting": "[3]; P. aeruginosa, day 2 of incubation", "result": 1.75, "unit": "weight percent"}, {"measurement": "QA, MIC of CHDM alone", "setting": "[3]; P. aeruginosa, day 3 of incubation", "result": 1.75, "unit": "weight percent"}, {"measurement": "QA/a: concentration of CHDM (MIC alone, or in the combination at an inhibitory concentration)", "setting": "[3]; [4]", "result": 1.75, "unit": "weight percent"}, {"measurement": "SI (synergy index)", "setting": "[3]; [4]", "result": 1.00}, {"measurement": "QA/a: concentration of CHDM alone (QA, MIC)", "setting": "[3]; Table 43, P. aeruginosa, Day 1", "result": "1.31 weight percent and 1.35 weight percent"}, {"measurement": "QA/a: concentration of CHDM alone (QA, MIC)", "setting": "[3]; Table 43, P. aeruginosa, Day 2", "result": "1.75 weight percent and 1.80 weight percent and 1.35 weight percent"}, {"measurement": "QA/a: concentration of CHDM alone (QA, MIC)", "setting": "[3]; Table 45, P. aeruginosa, Day 1", "result": "1.31 weight percent and 1.35 weight percent and 1.80 weight percent"}, {"measurement": "QA/a: concentration of CHDM alone (QA, MIC)", "setting": "[3]; Table 45, P. aeruginosa, Day 2", "result": "2.33 weight percent and 1.75 weight percent and 1.80 weight percent"}, {"measurement": "QA/a: concentration of CHDM alone (QA, MIC)", "setting": "[3]; Table 48, P. aeruginosa, Day 1", "result": "1.75 weight percent and 1.31 weight percent"}, {"measurement": "QA/a: concentration of CHDM alone (QA, MIC)", "setting": "[3]; Table 48, P. aeruginosa, Day 2", "result": "2.33 weight percent and 1.75 weight percent"}]}]}
